Consider one compound from US20250082592A1, “PHARMACEUTICAL COMPOSITION FOR PREVENTION, ALLEVIATION OR TREATMENT OF SARCOPENIA, CONTAINING ROR-alpha ACTIVATOR JC1-40” (SEOUL NATIONAL UNIVERSITY R & DB FOUNDATION, priority 2021, published 2025).

Experiment [1] has as its system C2C12 cells. Nature of the experiment: Protein expression of NRF1 and TFAM, Western blotting. It counts as cell-based. Conditions: JC1-40 20 μM. The procedure:
Using a method identical to the above, after treating C2C12 cells with the compound JC1-40, the expression of the mitochondrial biosynthesis regulators, NRF1 and TFAM proteins, was analyzed by Western blotting. Specific antibodies for NRF1 (Santa Cruz Biotechnology), TFAM (Santa Cruz Biotechnology), and α-tubulin (Millipore) were also used.
For orientation: A western blot detects proteins with antibodies after separation by electrophoresis.

Experiment [2] concerns C2C12 cells. The experiment can be described thus: Mitochondrial membrane potential, TMRM staining of C2C12 myotubes. It counts as cell-based. Conditions: JC1-40 20 μM, 48 hours in differentiation medium, vs solvent control. The procedure:
C2C12 cells (2×10^5 cells/well) were seeded in a 12-well culture plate and cultivated in DMEM (Dulbecco's modified Eagle's medium) medium containing 10% FBS (fetal bovine serum). The C2C12 cells were maintained at 37° C. in a humidified incubator with 5% CO2 and 95% air. After 48 hours of cultivation, the medium was changed to DMEM (Dulbecco's modified Eagle's medium) differentiation medium containing 2% horse serum, and the cells were treated with JC1-40 (20 μM) and solvent (control group). 48 hours after changing the differentiation medium, the mitochondria of the C2C12 cells were stained with Tetramethylrhodamine, Methyl Ester, and Perchlorate (TMRM) 600 nM. After 20 minutes, the medium was replaced with new medium containing TMRM 150 nM, and red fluorescence was observed after 10 minutes.

Experiment [3] concerns male C57BL/6 mice, high-fat diet. The experiment can be described thus: High-fat diet-induced animal model, gastrocnemius tissue immunofluorescence. It counts as in vivo. Conditions: JC1-40 5 mg/kg orally once a day for 5 weeks. As to the method:
To confirm the correlation between the administration of JC1-40, an increase in mitochondrial biosynthesis, and the suppression of sarcopenia, experiments were conducted using a diet-induced animal model. Specifically, male C57BL/6 mice aged 5 weeks were acclimatized in a temperature and humidity-controlled environment for one week and were provided with a high-fat diet (fats derived from lard and soybean oil, 60 kcal % included, Research diets) for 12 weeks. From the 8th week of the diet, JC1-40 was orally administered once a day for 5 weeks at a concentration of 5 mg/kg (FIG. 6A). In detail, an amount of JC1-40 corresponding to the final concentration was measured and added to sterile water containing 0.5% carboxymethyl cellulose, and then uniformly suspended using a mortar and pestle to produce the drug. The dose for each mouse subject was taken and orally administered using a Sonde. The control group was administered sterile water containing 0.5% carboxymethyl cellulose in the same manner. After 12 weeks of diet were completed, the mice were anesthetized, the gastrocnemius tissue was extracted, and it was fixed using a 4% paraformaldehyde solution. The fixed tissue underwent washing, decalcification, and dehydration, and was ultimately made into a paraffin block using paraffin. The created paraffin block was cut into sections with a thickness of 3 μm, and after creating sections, protein expression was confirmed with fluorescence using specific antibodies for COX4 (Cytochrome c oxidase subunit 4, Santa Cruz Biotechnology) and TFAM (Mitochondrial transcription factor A, Santa Cruz Biotechnology).

The next experiment addresses T1, RORα (Mus musculus, UniProt P51448).
T1 construct: endogenous in cells; host or cells: C2C12 cells
T1 sequence (P51448 1-523): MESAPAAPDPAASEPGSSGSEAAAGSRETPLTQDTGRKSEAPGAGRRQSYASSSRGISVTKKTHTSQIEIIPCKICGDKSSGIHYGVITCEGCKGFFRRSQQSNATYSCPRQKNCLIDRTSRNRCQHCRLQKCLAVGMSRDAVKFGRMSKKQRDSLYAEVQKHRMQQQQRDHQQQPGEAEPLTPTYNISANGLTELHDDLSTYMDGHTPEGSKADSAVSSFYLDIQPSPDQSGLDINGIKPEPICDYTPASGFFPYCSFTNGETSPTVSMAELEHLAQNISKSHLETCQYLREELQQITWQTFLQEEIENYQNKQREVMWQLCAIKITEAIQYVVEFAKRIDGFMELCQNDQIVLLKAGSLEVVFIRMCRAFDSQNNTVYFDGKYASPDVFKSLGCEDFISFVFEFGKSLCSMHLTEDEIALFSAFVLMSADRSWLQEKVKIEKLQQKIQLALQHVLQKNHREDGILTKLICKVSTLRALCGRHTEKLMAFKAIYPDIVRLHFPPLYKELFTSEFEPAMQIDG
Nature of the experiment: RORα dependency of TFAM expression, si-RORα transfection in C2C12 cells. Type of experiment: cell-based. Particulars: JC1-40 20 μM, 48 hours. The procedure: C2C12 cells (8×10^5 cells/dish) were seeded in a 60 mm dish and cultured overnight in DMEM (Dulbecco's modified Eagle's medium) containing 10% FBS (fetal bovine serum). The C2C12 cells were maintained at 37° C. in a humidified incubator with 5% CO2 and 95% air. After 24 hours of cultivation, si-RORα (250 pmoles) and si-GL3 (control group) were transfected into C2C12 cells using Lipofectamine 2000 (Thermo Fisher Scientific). After 24 hours post-transfection, the medium was switched to DMEM differentiation medium containing 2% horse serum, and treated with JC1-40 (20 μM) for 48 hours. The methods for RNA and protein extraction were as previously mentioned.

The subject of experiment [4] is C2C12 cells. Nature of the experiment: mRNA expression of mitochondrial constituent genes (SDHA, COX5A, MCAD), real-time PCR. Type of experiment: cell-based. Conditions: JC1-40 20 μM, 48 hours. As to the method: C2C12 cells (8×10^5 cells/dish) were seeded in a 60 mm dish and cultured in DMEM (Dulbecco's modified Eagle's medium) medium containing 10% FBS (fetal bovine serum). C2C12 cells were maintained at 37° C. in a humidified incubator with 5% CO2 and 95% air. After 48 hours of cultivation, the medium was changed to DMEM differentiation medium containing 2% horse serum, and the cells were treated with JC1-40 (20 μM) and solvent (control group). After 48 hours from the replacement of the differentiation medium, RNA was extracted. For extraction, the cells were dissolved with EASY BLUE (Intron, Korea), and isopropanol fractionation and ethanol precipitation were utilized. cDNA was synthesized from each RNA sample, and oligomers amplifying the cDNA of specific genes were utilized, monitoring the expression of R-actin as a control group. More specifically, an mRNA-M-MLV mixture was prepared using M-MLV reverse transcriptase (Invitrogen), and reverse transcription polymerase chain reaction was conducted using a thermal cycler. Subsequently, real-time polymerase chain reaction was performed using the ABI StepOnePlus Real-Time PCR system (Applied Biosystems).
(In general: Quantitative PCR measures a nucleic acid by following its amplification.)

The test system of a further experiment is HeLa cells. Nature of the experiment: Mitochondrial quantity, MitoTracker Green staining of HeLa cells. It counts as cell-based. Particulars: JC1-40 5 μM and 50 μM, 24 hours, vs solvent control. As to the method:
HeLa cells (4×10^4 cells/well) were seeded in a 12-well culture plate and cultivated overnight in DMEM (Dulbecco's modified Eagle's medium) medium containing 10% FBS (fetal bovine serum). The HeLa cells were maintained at 37° C. in a humidified incubator with 5% CO2 and 95% air. After 24 hours of cultivation, the medium was replaced and JC1-40 (5 μM, 50 μM), and solvent (control group) were treated for 24 hours.

The next experiment concerns TFAM promoter. Nature of the experiment: TFAM promoter transcriptional activity, human TFAM-Luc reporter luciferase assay in C2C12 cells. Particulars: JC1-40 20 μM, 24 hours. It counts as cell-based. As to the method:
C2C12 cells (1×10^5 cells/well) were seeded in a 12-well culture plate and cultured overnight in DMEM containing 10% FBS. The C2C12 cells were maintained at 37° C. in a humidified incubator with 5% CO2 and 95% air. After 24 hours of cultivation, human TFAM-Luc reporter (100 ng) was transfected into C2C12 cells using PolyFect (QIAGEN). After 24 hours post-transfection, the medium was changed to DMEM differentiation medium containing 2% horse serum, and treated with JC1-40 (20 μM) and solvent (control group). 24 hours later, cell lysates were obtained and luciferase activity was analyzed and determined using an analytical luminescence luminometer.

Experiment [5] has as its system C2C12 cells. Nature of the experiment: mRNA expression of mitochondrial biosynthesis regulators (PGC-1α, NRF-1, NRF-2α, TFAM), real-time PCR. It counts as cell-based. Particulars: JC1-40 20 μM, 48 hours. As to the method: C2C12 cells (8×10^5 cells/dish) were seeded in a 60 mm dish and cultured in DMEM (Dulbecco's modified Eagle's medium) containing 10% FBS (fetal bovine serum). The C2C12 cells were maintained at 37° C. in a humidified incubator with 5% CO2 and 95% air. After 48 hours of cultivation, the medium was changed to DMEM differentiation medium containing 2% horse serum, and treated with JC1-40 (20 μM) and solvent (control group). 48 hours after changing to the differentiation medium, RNA was extracted. The RNA extraction method is as described in Example 3. The results of the mRNA expression of mitochondrial biosynthesis regulators PGC-1α(Peroxisome proliferator-activated receptor gamma coactivator 1-alpha), NRF-1 (Nuclear Respiratory Factor 1), NRF-2a (Nuclear Respiratory Factor 2 alpha), and TFAM (Mitochondrial transcription factor A) induced by JC1-40 are shown in FIG. 4A.

Turning to `CNC(=S)NCc1ccc(OCc2ccccc2)cc1` [JC1-40, 1-methyl-3-[(4-phenylmethoxyphenyl)methyl]thiourea], in the experiment on C2C12 cells [1], the “protein expression of NRF-1” value is on record as “increased” and the “protein expression of TFAM” value was “increased”. In addition, the “red fluorescence (TMRM), mitochondrial membrane potential” value in the experiment with C2C12 cells [2] was “increased”. In experiment [3], the “protein expression of COX4 in gastrocnemius tissue” value was “significantly increased”, the “protein expression of TFAM in gastrocnemius tissue” value was “significantly increased” and the “sarcopenia induced by the high-fat diet” value was “significantly improved”. Also, the “increase in TFAM expression with si-RORα” value at RORα (C2C12 cells transfected with si-RORα (250 pmoles)) is reported as “did not occur”. Besides, the “protein expression of TFAM” value on RORα (C2C12 cells, si-GL3 control) is listed as “increased”. Also, in the experiment with C2C12 cells [4], the “mRNA expression of COX5A” value was “increased”, the “mRNA expression of MCAD” value is reported as “increased” and the “mRNA expression of SDHA” value is given as “increased”. Further, the “green fluorescence (MitoTracker Green), quantity of mitochondria” value in the experiment on HeLa cells was “increased in a concentration-dependent manner”. Further, the “transcriptional activity of the TFAM promoter (luciferase activity)” value in the experiment with TFAM promoter is “confirmed to be due to the transcriptional activity of the TFAM promoter”. Moreover, in the experiment with C2C12 cells [5], the “mRNA expression of NRF-1” value was “increased”, the “mRNA expression of NRF-2” value is “increased”, the “mRNA expression of PGC-1α” value is recorded as “increased” and the “mRNA expression of TFAM” value is on record as “increased”.
